Measured values taken from patent US6372793B1, “Method for treatment of a neurological disease characterized by impaired neuromodulator function” (Florida Agricultural & Mechanical University, priority 1999, dated 2002).
Where a name gives a salt, the structure may show the parent alone.

Key:
SAM-induced tremors [1] = experiment: Effect of farnesylcysteine/prenylcysteine analogs on SAM-induced tremors and PD-like symptoms; assay type: in vivo, rat; conditions: 20 min
Procedure: (§1) Rats were cannulated for subsequent injections into the lateral ventricle as previously described (Charlton and Mack, 1994). Briefly, each rat was anesthetized with 400 mg/kg of chloral hydrate. A stainless steel guide cannula was stereotaxically placed 1.5 mm lateral and 0.6 mm caudal to the Bregma with the tip extended to the inner surface of the cranium, above the dura mater. At least 2 days following cannulation, injections were made through the cannula into the lateral ventricle with a 26 gauge insertion cannula, pre-measured to descend 5 mm from the surface of the skull into the lateral ventricle. Each injected rat was put in a cage which was then placed on the sensor assembly of the Tremor-Scan Monitor. The recording parameters were set according to the manufacturer's instructions by adjusting the Gain on the instrument to 4 which insured that most of the signals with large or small amplitudes remained within the detection limit or not reduced to the baseline respectively, as viewed on the computer monitoring screen. The noise that could interfere with the SAM-induced tremors is usually of low amplitude and was reduced to baseline levels by this gain setting. This setting was used for all subsequent recording and storage of the vibration signals due to tremor-like activities of the
AFC, FTP and FTS were each suspended in PBS and dissolved by adjusting the pH to 7.4 with NaOH followed by the addition of more PBS to make 0.2 mmol/ml solutions. PBS or each compound, dissolved in 5 mml of solution, was injected into the lateral ventricle of cannulated rats 5 min prior to SAM injections. SAM (1 mmmol in 5 mml of PBS) was injected and the movements recorded over a 20 min period as described above.

rats [2] = experiment: Effect of farnesylcysteine analogs on the movements of rats (Animal Activity Monitor); assay type: in vivo, rat; conditions: 1 mmmol icv alone or in combination with 1 mmmol of SAM
Procedure: Cannulated rats were injected (icv) with AFC or FTP (1 mmmol, 5 mml) in combination with PBS or 1 mmmol of SAM, injected similarly 5 min after injection of the FC analogs. Their movements were measured in an Animal Activity Monitor (AccuScan Electronics, Inc., Columbus, Ohio) and compared to those of control animals that received PBS.

rat brain membranes = experiment: SAM-dependent methylation of FC analogs by rat brain membranes; assay type: biochemical; conditions: 60 min; for methylation by rat nerve cell membranes in the presence of [3H-methyl]SAM: 200 mmM analog, 37° C.
Procedure: AFC, FTP and FTS (200 mmM) were each incubated for 60 min with rat brain membranes (240 mmg of protein) at 37° C. in 100 mM Tris-HCl, pH 7.4 containing SAM (10 mmM, 1.3 mmCi [^3H-methyl]-SAM), 5 mM MgSO4 and 0.1 M NaCl in a total incubation volume of 400 mml. The reactions were stopped with 5% TFA and chilled on ice. Hexane (400 mml) was added and the contents of the tubes mixed thoroughly. This was followed by centrifugation at 20,000 g for 2 min. The upper hexane layer was removed and 250 mml analyzed by reversed-phase HPLC on a Whatman column (C18, 4.6×150 mm). Methylated FC analogs were eluted from the column at a rate of 1 ml/min with a 0 to 100% gradient of acetonitrile in 0.1% TFA from the 3rd to the 15th min of each run. This composition was maintained for a further 2 min before re-equilibration of the column for the next sample. Detection was conducted with an online radiochromatographic detection system (INUS β-ram, Tampa, Fla.).

[3] = test system: 6-hydroxydopamine-lesioned rats; experiment: Amphetamine-induced ipsiversive rotation of 6-hydroxydopamine-lesioned rats (RotoScan Rotometer); assay type: in vivo, rat
SAM-induced tremors [4] = experiment: Effect of L-DOPA, SAH and NADA on SAM-induced tremors; assay type: in vivo, rat; conditions: for number of tremors / total duration of tremors: 20 min; for effect on the SAM-induced PD-like symptoms: icv before SAM
Procedure: as §1
Cannulated rats were injected either with PBS (5 mml), L-DOPA (1.5 mmmol), SAH (1.0 mmmol) or NADA (1.0 mmmol) followed by an injection of either 0.75 or 1.0 mmmol of SAM. Each compound was dissolved or finely suspended in PBS. They were then monitored for tremors on the Tremor Monitor for a period of 20 min.

rat nerve cell membranes = experiment: In vitro association of [3H-methyl]SAM or 3H-MPP+ with rat nerve cell membranes; assay type: binding; conditions: for effect on association of [3H-methyl]SAM radioactivity with membranes: 100 mmM non-radioactive compound in the incubation mixture; for effect on 3H-MPP+ association with membranes: non-radioactive competitor
Procedure: Rat brain (1.76 g) was homogenized in 20 ml of 50 mM Tris-HCl, pH 7.4 containing 2.5 mM EDTA and 0.02% bovine serum albumin and centrifuged at 900×g for 10 min. The supernatant was transferred and the pellet re-suspended in the same buffer and centrifuged. The 900×g supernatants were combined and centrifuged at 20,000×g for 40 min. The supernatant was removed and the pellet resuspended in 5 ml of buffer, aliquoted and frozen at −70° C. until needed.
To understand whether the behavioral effects of SAM were due to interactions with cellular macromecules, [^3H-methyl]SAM (0.2 mmCi) was incubated with rat nerve cell membranes (30 mmg of protein) at 37° C. At the appropriate incubation periods, the reaction tubes were removed and centrifuged (13,000 rpm, MSE Centaur) for 10 min. The supernatant was discarded and the pellet suspended in scintillation fluid and their total radioactive content determined by scintillation counting.

rats [5] = experiment: Tremors and PD-like symptoms induced by icv SAM, recorded on the Tremor-Scan Monitor; assay type: in vivo, rat
Procedure: as §1
The Tremor Monitor software, which allows for the determination of 1) the signal amplitude, 2) the number of cycles in each activity or episode, 3) the number of activities and 4) the duration of each activity or episode, aided in the storage and subsequent retrieval and analysis of the recorded activity profiles. Analysis of the stored data was achieved by altering the minimum and maximum frequency, amplitude and number of cycles to reflect the unique properties of each kind of movement and thus delineate the SAM-induced tremors from non-tremor activity signals.
The dose-dependent effects of SAM was also determined in cannulated rats injected with 0 (PBS), 0.5, 0.75 and 1.0 mmmol of SAM. Their tremor activities were recorded on the Tremor-Scan monitor for 20 min.
To determine the duration and magnitude of SAM-induced tremors, groups of cannulated rats were injected either with 1 mmmol of SAM or with 5 mml of PBS, as control. The animals were monitored on the Tremor-Scan Monitor for a duration of 2 h starting immediately after the injections.

[6] = 1 mmmol FC analog icv 5 min before 1 mmmol SAM
[7] = 1.5 mmmol L-DOPA icv before 0.75 mmmol SAM, or SAM alone
[8] = 1 mmmol NADA or SAH icv followed by 1 mmmol SAM, or SAM alone
[9] = 0 mmmol FC analog followed by 1 mmmol SAM
[10] = 1 mmmol SAM icv, first 10 min interval of 2 h recording
[11] = 20 min, re-analysis with minimum amplitude 20 and minimum cycles per activity 20
[12] = SAM icv, 20 min recording, frequency window 8 to 20, minimum amplitude 10, minimum 10 cycles
[13] = raw data, 20 min monitoring, minimum amplitude 10, minimum cycles 10

Question: `CC(=O)N[C@@H](CSC/C=C(\C)CC/C=C(\C)CCC=C(C)C)C(=O)O` [AFC, N-acetyl-S-farnesyl-L-cysteine] was tested. Which tremors observed (SAM-induced tremors [1]; 0.5 mmmol FC analog icv 5 min before 1 mmmol SAM) did it give?
Answer: Its tremors observed is “significant reduction of tremors”.

Question: And the tremors observed (SAM-induced tremors [1]; [6])?
Answer: The tremors observed was “no tremors”.

Question: And the movement activity (rats [2])?
Answer: The movement activity was “significantly higher degree of movement activity”.

Question: And the “methylation by rat nerve cell membranes in the presence of [3H-methyl]SAM” value (rat brain membranes)?
Answer: The value was “avid methyl acceptors”.

Question: What about the net rotations ([3]; AFC alone, no amphetamine) of the same compound?
Answer: The net rotations was “only few net rotations”.

Question: And the “increase of amphetamine-induced rotation” value ([3]; amphetamine ip plus AFC 1 mmmol icv, versus amphetamine alone)?
Answer: Its value is 2 fold.

Question: And the “ipsiversive rotations within 90 min” value ([3]; amphetamine ip plus AFC 1 mmmol into the left lateral ventricle)?
Answer: Its value is 830±110.

Question: What about the “ipsiversive rotations within 90 min” value ([3]; amphetamine ip plus AFC 1 mmmol into the right lateral ventricle) of the same compound?
Answer: Its value is 790±160.

Question: Which tremors observed (SAM-induced tremors [1]; [6]) does the source give for `CC(C)=CCCC(C)=CCCC(C)=CCSc1ccccc1C(=O)O` [FTS, farnesylthiosalicylic acid] here?
Answer: Its tremors observed is “significantly fewer tremors”.

Question: What about the “methylation by rat nerve cell membranes in the presence of [3H-methyl]SAM” value (rat brain membranes) of the same compound?
Answer: The value was “never methylated”.

Question: And the “inhibition of the methylation of AFC and FTP” value (rat brain membranes; indicated concentrations of FTS)?
Answer: The value was “dose-dependently inhibited”.

Question: What does the source list for `N[C@@H](Cc1ccc(O)c(O)c1)C(=O)O` [L-DOPA, L-dihydroxyphenylalanine]?
Answer: number of tremors (SAM-induced tremors [4]; [7]): 25±4; total duration of tremors (SAM-induced tremors [4]; [7]): 111 ± 22 s; effect on the SAM-induced PD-like symptoms (SAM-induced tremors [4]): little or no effect

Question: How did the “effect on association of [3H-methyl]SAM radioactivity with membranes” value (rat nerve cell membranes) turn out when `C[n+]1ccc(-c2ccccc2)cc1` [MPP^+, 1-methyl-4-phenylpyridinium ion] was run?
Answer: Its value is “No effect”.

Question: How did the “total duration of tremors” value (SAM-induced tremors [4]; [8]) turn out when `CC(=O)NCCc1ccc(O)c(O)c1` [NADA, N-acetyldopamine] was run?
Answer: Its value is 200±43.

Question: What about the “effect on the SAM-induced PD-like symptoms” value (SAM-induced tremors [4]) of the same compound?
Answer: Its value is “little or no effect”.

Question: Which “radioactivity associated with the membranes in presence of competitor” value (rat nerve cell membranes; [3H-methyl]SAM, 100 mmM competitor in the incubation mixture) does the source give for `Nc1ncnc2c1ncn2[C@@H]1O[C@H](CSCC[C@H](N)C(=O)O)[C@@H](O)[C@H]1O` [SAH, S-adenosyl-L-homocysteine] here?
Answer: Its value is “about 2000 DPM”.

Question: What about the “effect on 3H-MPP+ association with membranes” value (rat nerve cell membranes) of the same compound?
Answer: Its value is “little affected”.

Question: And the “total duration of tremors” value (SAM-induced tremors [4]; [8])?
Answer: Its value is 212±52.

Question: What about the “effect on the SAM-induced PD-like symptoms” value (SAM-induced tremors [4]) of the same compound?
Answer: Its value is “little or no effect”.

Question: Which duration of tremors (SAM-induced tremors [1]; [9]) does the source give for `C[S+](CC[C@H](N)C(=O)O)C[C@H]1O[C@@H](n2cnc3c(N)ncnc32)[C@H](O)[C@@H]1O` (stereo partly drawn) [SAM, S-Adenosyl-L-methionine] here?
Answer: The duration of tremors was 310 ± 70 s.

Question: And the number of tremors (SAM-induced tremors [1]; [9])?
Answer: The number of tremors was 46±10.

Question: What about the “change of membrane-associated radioactivity after addition of non-radioactive compound (reversibility)” value (rat nerve cell membranes; 100 mmM non-radioactive SAM added after 2 h incubation with [3H-methyl]SAM) of the same compound?
Answer: Its value is “neither increased nor decreased”.

Question: And the “effect on association of [3H-methyl]SAM radioactivity with membranes” value (rat nerve cell membranes)?
Answer: The value was “inhibited”.

Question: And the “effect on 3H-MPP+ association with membranes” value (rat nerve cell membranes)?
Answer: The value was “little affected”.

Question: And the number of tremors (rats [5]; 0.5 mmmol SAM icv, 20 min)?
Answer: The number of tremors was “minimal”.

Question: And the “total duration of tremors” value (rats [5]; 0.5 mmmol SAM icv, 20 min)?
Answer: Its value is “minimal”.

Question: What about the “increase in number of tremors” value (rats [5]; 0.75 mmmol SAM icv, 20 min) of the same compound?
Answer: Its value is 7 fold.

Question: And the “increase in total duration of tremors compared to the 0.5 mmmol injection” value (rats [5]; 0.75 mmmol SAM icv, 20 min)?
Answer: The value was 9 fold.

Question: What about the “rate of tremor episodes during the first 10 min” value (rats [5]; 1 mmmol SAM icv) of the same compound?
Answer: Its value is “about 2 episodes per min”.

Question: What about the “time that abnormal posture, hypokinesia and rigidity remained” value (rats [5]; 1 mmmol SAM icv) of the same compound?
Answer: The value was “about 90 min”.

Question: What about the “increase in number of tremors” value (rats [5]; 1 mmmol SAM icv, 20 min) of the same compound?
Answer: The value was 8 fold.

Question: And the “increase in total duration of tremors compared to the 0.5 mmmol injection” value (rats [5]; 1 mmmol SAM icv, 20 min)?
Answer: The value was 12 fold.

Question: And the “number of tremors in the first 10 min interval” value (rats [5]; [10])?
Answer: The value was 19±4.

Question: And the “total duration of tremors within the first 10 min” value (rats [5]; [10])?
Answer: The value was 120 ± 20 s.

Question: What about the “number of tremor activities” value (rats [5]; [11]) of the same compound?
Answer: Its value is 70±8.

Question: And the “total duration of tremor activity” value (rats [5]; [11])?
Answer: The value was 360 ± 18 s.

Question: What about the average amplitude (rats [5]; [12]) of the same compound?
Answer: Its average amplitude is 42.3±5.

Question: What about the frequency (rats [5]; [12]) of the same compound?
Answer: The frequency was 12±0.1.

Question: And the “number of cycles (waves) per activity” value (rats [5]; [12])?
Answer: Its value is 54±6.

Question: And the “time to onset of tremors, hypokinesia, rigidity and abnormal posture after injection” value (rats [5]; SAM into the lateral ventricle)?
Answer: Its value is 0.5 to 2 min.

Question: And the number of activities (rats [5]; [13])?
Answer: Its number of activities is 92±12.

Question: And the “total duration of tremors” value (rats [5]; [13])?
Answer: Its value is 470 ± 50 s.

Question: What about the “total duration of tremors” value (SAM-induced tremors [4]; [8]) of the same compound?
Answer: The value was 273±128.

Question: What about the number of tremors (SAM-induced tremors [4]; [7]) of the same compound?
Answer: The number of tremors was 33±7.

Question: What about the “total duration of tremors” value (SAM-induced tremors [4]; [7]) of the same compound?
Answer: The value was 170 ± 34 s.

Question: For `C[S+](CC[C@H](N)C(=O)[O-])C[C@H]1O[C@@H](n2cnc3c(N)ncnc32)[C@H](O)[C@@H]1O` (stereo partly drawn) [[^3H-methyl]SAM, S-[methyl-^3H]-SAM], which “radioactivity associated with the membranes” value (rat nerve cell membranes; [3H-methyl]SAM incubated with rat nerve cell membrane preparation, no competitor) is on record?
Answer: Its value is “about 6000 DPM”.

Question: With `C[C@H](N)Cc1ccccc1` [amphetamine, d-amphetamine sulfate] as the compound, how does the “ipsiversive rotations within 90 min” value ([3]; amphetamine ip (5 mg/kg) alone, 7 days after intrastriatal 6-OHDA) read?
Answer: Its value is 390±130.
